Laboratory results published in paper PMC9706280 (Journal of Pesticide Science, 2022).

Molecular target: succinate dehydrogenase (SDH) (Botrytis cinerea, UniProt A0A384J5E4+A0A384J8V8+A0A384JHJ5)
Test: SDH assay kit on B. cinerea mitochondrial suspension, absorbance at […] nm
Format: biochemical
Details: read-out: IC50 / μM

succinate dehydrogenase (SDH), sequence (A0A384J5E4 31-300): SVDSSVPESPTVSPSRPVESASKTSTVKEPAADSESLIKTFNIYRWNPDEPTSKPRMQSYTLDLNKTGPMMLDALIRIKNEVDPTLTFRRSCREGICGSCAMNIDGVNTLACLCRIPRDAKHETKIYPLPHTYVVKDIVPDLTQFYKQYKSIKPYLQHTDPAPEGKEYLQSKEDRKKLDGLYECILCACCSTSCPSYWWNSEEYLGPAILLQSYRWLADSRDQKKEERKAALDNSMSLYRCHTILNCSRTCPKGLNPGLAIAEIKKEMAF
succinate dehydrogenase (SDH), sequence (A0A384J8V8 41-189): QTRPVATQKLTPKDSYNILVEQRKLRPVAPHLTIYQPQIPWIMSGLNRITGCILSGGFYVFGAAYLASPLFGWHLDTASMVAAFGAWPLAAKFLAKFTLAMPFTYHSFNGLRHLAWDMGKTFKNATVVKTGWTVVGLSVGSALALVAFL
succinate dehydrogenase (SDH), sequence (A0A384JHJ5 55-192): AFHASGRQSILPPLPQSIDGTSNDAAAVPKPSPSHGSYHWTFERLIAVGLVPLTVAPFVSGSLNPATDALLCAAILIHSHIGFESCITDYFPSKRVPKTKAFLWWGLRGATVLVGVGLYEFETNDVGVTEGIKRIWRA
succinate dehydrogenase (SDH), sequence (A0A384K456 41-647 partner): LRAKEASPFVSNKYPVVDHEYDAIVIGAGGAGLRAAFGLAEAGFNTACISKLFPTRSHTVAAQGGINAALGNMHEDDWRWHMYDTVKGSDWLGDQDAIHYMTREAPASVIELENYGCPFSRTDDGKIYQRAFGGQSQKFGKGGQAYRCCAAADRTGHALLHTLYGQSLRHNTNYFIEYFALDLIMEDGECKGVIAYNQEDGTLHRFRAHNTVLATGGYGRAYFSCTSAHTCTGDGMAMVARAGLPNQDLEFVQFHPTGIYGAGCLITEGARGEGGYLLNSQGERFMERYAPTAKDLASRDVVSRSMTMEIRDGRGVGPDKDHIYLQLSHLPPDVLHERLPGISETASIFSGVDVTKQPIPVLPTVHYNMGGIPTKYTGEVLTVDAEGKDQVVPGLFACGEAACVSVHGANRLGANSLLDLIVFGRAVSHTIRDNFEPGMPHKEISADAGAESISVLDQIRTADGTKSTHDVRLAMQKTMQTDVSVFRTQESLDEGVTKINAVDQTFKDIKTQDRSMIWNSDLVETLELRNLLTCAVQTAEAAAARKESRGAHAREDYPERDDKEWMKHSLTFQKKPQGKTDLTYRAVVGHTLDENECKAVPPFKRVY

O=C(Nc1ccccc1Nc1ccccc1)c1ccc(Cl)nc1 [3f, 6-chloro-N-(2-(phenylamino)phenyl)nicotinamide]
IC50: 17.3 µM

Cc1nc(C(F)(F)F)c(C(=O)Nc2c(Br)cc(OC(F)(F)F)cc2Br)s1 [thifluzamide]
IC50: 14.4 µM
